Values of other authors in patent publication US20190275032A1 (Boehringer Ingelheim International GmbH, priority 2016, published 2019).

Columns and labels:
patients with IPF [1] = test system: patients with IPF
PDGFR-α and-β = conditions: normal human lung fibroblasts in vitro
patients with IPF [2] = conditions: both INPULSIS trials, nintedanib 150 mg twice daily versus placebo

exposure in patients with hepatic impairment (Child Pugh A, Child Pugh B) | elimination via biliary/faecal excretion (in vivo) [%] | SMILES | primary endpoint of change from baseline FVC % predicted (patients with IPF [1]; ASCEND Phase III trial) | primary FVC lung function endpoint (patients with IPF [1]; international Phase III CAPACITY program) | decline of vital capacity (patients with IPF [1]; two local trials in Japan) | PDGFR-α and -β activation (PDGFR-α and-β) | reduction of the annual rate of decline in FVC (mL/year) (patients with IPF [2]) | PDGF- or FGF-2-stimulated migration of lung fibroblasts (human lung fibroblasts; fibroblasts from patients with IPF) | TGF-β-induced fibroblast to myofibroblast transformation (human lung fibroblasts; primary human lung fibroblasts from IPF patients) | total lung collagen (mouse models of IPF; IPF mouse models) | lymphocyte and neutrophil counts in the bronchoalveolar lavage fluid (mouse models of IPF; two different mouse models of IPF)
– | – | Cc1ccc(=O)n(-c2ccccc2)c1 [Pirfenidone, 5-methyl-1-phenyl-2(1H)-Pyridinone] | met the primary endpoint | demonstrated efficacy on the primary FVC lung function endpoint in only one of two confirmatory trials | reduced decline | – | – | – | – | – | –
Exposure increased | > 90 | COC(=O)c1ccc2c(c1)NC(=O)/C2=C(\Nc1ccc(N(C)C(=O)CN2CCN(C)CC2)cc1)c1ccccc1 [Nintedanib, 3-Z-[1-(4-(N-((4-methyl-piperazin-1-yl)-methylcarbonyl)-N-methyl-amino)-anilino)-1-phenyl-methylene]-6-methoxycarbonyl-2-indolinone] | – | – | – | inhibit | approximately 50% | attenuated | inhibited | significant reductions | significant reductions
